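48-hour exposure; five concentrations; linearly interpolated endpoints. Here, GI50 denotes the concentration required for 50% inhibition of growth. TGI: total growth inhibition.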
Legend:
Assay in all cases: NCI tumour cell line growth inhibition, 48 h
[1] = system: HL-60(TB) leukemia
[2] = system: HS 578T breast
[3] = system: IGROV1 ovarian
[4] = system: MDA-MB-435
[5] = system: MOLT-4 leukemia
[6] = system: NCI-H460 lung
[7] = system: NCI-H522 lung
[8] = system: NCI/ADR-RES ovarian
[9] = system: OVCAR-3 ovarian
[10] = system: A549 NSCLC

Row | Structure (SMILES) | GI50 [1] [µM] | TGI [1] [µM] | GI50 [2] [µM] | TGI [2] [µM] | GI50 [3] [µM] | TGI [3] [µM] | GI50 [4] [µM] | TGI [4] [µM] | GI50 [5] [µM] | TGI [5] [µM] | GI50 [6] [µM] | TGI [6] [µM] | GI50 [7] [µM] | TGI [7] [µM] | GI50 [8] [µM] | TGI [8] [µM] | GI50 [9] [µM] | TGI [9] [µM] | TGI [10] [µM] | GI50 [10] [µM]
1 | Cc1cccc2nc3cccc(C(=O)NCCNCCNCCNC(=O)c4cccc5nc6cccc(C)c6nc45)c3nc12 | < 0.0139 | 1.12 | 0.0474 | 2.24 | < 0.01 | > 39.3 | < 0.01 | 1.41 | < 0.01 | 14.7 | < 0.01 | 0.19 | < 0.01 | 0.159 | 0.296 | > 100 | < 0.01 | 2.91 |  | 
2 | CC(=O)OC12c3ccccc3-c3ccccc3C1C(C(=O)O)C2(Cl)C(=O)O (configuration not stated) |  | > 10 |  | > 10 |  | > 10 |  | > 10 |  | > 10 |  | > 10 |  | > 10 |  | > 10 |  | > 10 |  | 
3 | COc1ccc2c(Cc3c4ccccc4cc4ccccc34)cncc2c1O |  | 8.36 |  | > 100 |  | 11 |  | 0.622 |  | 8.82 |  | 3.94 |  | 21.2 |  | 9.17 |  | 8.97 | > 39.8 | 
4 | Cc1ccc(/C=C/C(=N/N=C(N)N)c2ccccc2)cc1 | 2.28 | 4.75 | 1.56 | 5.14 | 6.36 | 23.1 | 0.432 | 4.93 | 3.01 | 9.1 | 3.1 | 10.1 | 1.8 | 5.12 | 3.14 | 12 | 2.28 | 6.03 | 12.5 | 3.46
5 | c1ccc(Nc2nc(-c3ccccn3)cs2)nc1 | 0.392 | 3.01 | 2.91 | > 100 | 0.464 | 5.8 | 0.689 | > 53.5 | 0.301 | > 27.2 | 0.29 | 2.61 | 0.253 | 15.1 | 0.103 | 2.89 | 0.273 | 19.6 | > 35 | 0.623
6 | CCC(C)[C@H](NC(=O)NC(=O)NC(=O)CI)C(=O)OC (some centres not stated) | 1.6 | 3.4 | 23.5 | 73.5 | 3.47 | 12.1 | 10.5 | 22.3 | 2.47 | 6.74 | 17.4 | 39.4 | 1.51 | 3.01 | 21.2 | 60 | 2.2 | 4.66 | 37 | 19.5
7 | C=C1CCC2C3(C)COC(c4c(OC)cccc4OC)OC3CCC2(C)C1C/C=C1/C(=O)OCC1O (configuration not stated) | 1.54 | 4.9 | 2.71 | 10.9 | 1.89 | 4 | 2.88 | 10.8 | 3.22 | 13.3 | 4.71 | 19.5 | 2.02 | 5.01 | 2.65 | 7.03 | 1.94 | 3.95 | 11.6 | 3.14
8 | Nc1nc2c(nnn2C2OC(CO)C(O)C2O)c(=O)[nH]1 (configuration not stated) | 0.546 | > 100 | 12 | > 100 | 2.76 | > 100 | 2.11 | > 100 | 0.847 | > 100 | 1.51 | > 40.6 | 0.596 | 6.74 | 1.23 | > 100 | 1.17 | 10.7 | > 100 | 3.01
9 | COc1cc2nc(-c3ccc(Cl)cc3)cc(OCCCN3CCCC3)c2cc1OC | 2.72 | 8.33 | 1.89 | 6.68 | 0.881 | 11.8 | 2.72 | 10.8 | 1.5 | 3.47 | 0.823 | 11.2 | 2.36 | 8.89 | 0.683 | 11 | 2.71 | 13.1 | 12.4 | 1.52
10 | O=C1CCCCC=C1C[N+](=O)[O-] | 14 | > 100 | 41.8 | > 100 | 33 | > 100 | 20.6 | 41.2 | 11.9 | 31 | 34.3 | > 100 | 14.6 | 37 | 36.3 | > 100 | 23.9 | 69.1 | > 100 | 38.2
11 | O=C1C(=O)c2ccccc2C(O)=C1CCCc1ccc(C2CCCC2)cc1 | 2.9 | 6.92 | 20.6 | 85.1 | 3.72 | 18.4 | 5.1 | 38.8 | 3.72 | 12.3 | 3.11 | 11.8 | 5.01 | 25.9 | 5.89 | 30.2 | 4.91 | 20.1 | 32.9 | 3.36
12 | CCN(CC)CCOc1ccc(/C=C2\C[C@H]3[C@H]4CC=C5C[C@@H](O)CC[C@]5(C)[C@H]4CC[C@]3(C)[C@H]2O)cc1OC | 10.4 | 22.5 | 8.66 | 18.7 | 1.23 | > 50 | 7.75 | 16.5 | 10.5 | > 50 | 13.1 | > 50 | 0.216 | > 50 | 9.98 | 22 | 7.96 | 17.8 | 25 | 10.7
13 | CC(C)(CCN=C(N)Nc1ccccn1)c1ccc(C(F)(F)F)cc1 | 17.1 | 36 | 18.1 | 39.3 | 12 | 26.2 | 15.1 | 29 | 14.5 | 37.4 | 15.3 | 31.2 | 14.5 | 30.8 | 17.5 | 32.9 | 13.7 | 29.5 | 31.6 | 16.5

Source: PubChem BioAssay (NCI)
